Laboratory results taken from PMC8857485, “Prostate secretory protein 94 inhibits sterol binding and export by the mammalian CAP protein CRISP2 in a calcium-sensitive manner” (The Journal of Biological Chemistry, 2022).
Where a name gives a salt, the structure may show the parent alone. Read-outs that look alike come from different tables or passages of the source.

Key:
CRISP2 N97P = target: T1, CRISP2 N97P (Homo sapiens, UniProt P16562, N97P); assay: MST binding to CRISP2 single mutant N97P; design: species or system mammalian; conditions: absence of PSP94, read-out: Kd, sterol binding by CRISP2 N97P
T1 construct: made in house; host or cells: E. coli
Text: This interaction is thus located outside the hydrophobic loop that harbors the sterol-binding CBM. Based on these structural considerations, it is thus not apparent why and how the interaction between PSP94 and CRISP2 would block sterol binding at the CBM. To investigate this question in more detail, we first performed computational docking studies to identify residues in CRISP2 that are critical for the interaction with PSP94. […] Two of these three interacting residues, N97 and L98, are conserved in all three CAP family members tested here, CRISP2, CRISP3, and Pry1 (Fig. 4A). […]
(§1) MST experiments were performed to assess protein–protein, protein–lipid, and protein–calcium interactions using a Monolith NT.115 (Nanotemper Technologies). […] The dissociation constant Kd was obtained by plotting the normalized fluorescence (Fnorm) against the logarithm of ligand concentration. […]
Quadruple mutant cells lacking the acyl-CoA synthetases FAA1 and FAA4 and the yeast CAP family members PRY1 and PRY3 (faa1∆ faa4∆ pry1∆ pry3∆) expressing different combinations of plasmid-borne copies of PRY1, CRISP2, and or PSP94, or their respective empty vectors (pRS423 or pRS426) were cultivated overnight. The export of fatty acids into the culture medium was then quantified. […]

Pry1 = target: T2, Pry1 (Saccharomyces cerevisiae, UniProt P47032); assay: Microscale thermophoresis (MST) binding to Pry1; conditions: absence of PSP94, read-out: Kd, sterol binding by Pry1
T2 construct: made in house; host or cells: E. coli BL21
Text: (§2) To confirm the direct interaction of PSP94 with CRISP3 and to test whether PSP94 would also bind other CAP family members such as yeast Pry1, or CRISP2, we performed in vitro protein binding assay using microscale thermophoresis (MST). Therefore, PSP94 and the CAP family members, Pry1, CRISP2, and CRISP3, were expressed as fusion proteins with a C-terminal polyhistidine tag in Escherichia coli, and the proteins were affinity purified on nickel-NTA agarose beads. The purified CAP proteins were then fluorescently labeled using RED-tris-NTA and incubated with varying concentrations of PSP94. […] PSP94 thus has high binding affinity for all three CAP proteins tested, and it also binds the CAP domain of Pry1 (Pry1^CAP) alone.
(§3) DNA encoding proteins of interest were PCR amplified and cloned into NcoI and XhoI restriction sites of pET22b, which contains a PelB signal sequence to direct the secretion of expressed protein into the periplasmic space. […] Protein concentration was determined by Lowry assay using the Folin reagent and bovine serum albumin as protein standard.
as §1

[1] = target: T3, CAP domain of Pry1 (Pry1^CAP) (Saccharomyces cerevisiae, UniProt P47032); assay: MST binding to the CAP domain of Pry1
T3 construct: made in house; host or cells: E. coli BL21
Text: as §2, §3, §1

T3 sequence (P47032 167-281 limits assumed): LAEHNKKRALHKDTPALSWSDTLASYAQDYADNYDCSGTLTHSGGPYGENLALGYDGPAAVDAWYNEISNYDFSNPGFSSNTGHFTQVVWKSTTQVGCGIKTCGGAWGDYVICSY
T2 sequence (P47032 20-299): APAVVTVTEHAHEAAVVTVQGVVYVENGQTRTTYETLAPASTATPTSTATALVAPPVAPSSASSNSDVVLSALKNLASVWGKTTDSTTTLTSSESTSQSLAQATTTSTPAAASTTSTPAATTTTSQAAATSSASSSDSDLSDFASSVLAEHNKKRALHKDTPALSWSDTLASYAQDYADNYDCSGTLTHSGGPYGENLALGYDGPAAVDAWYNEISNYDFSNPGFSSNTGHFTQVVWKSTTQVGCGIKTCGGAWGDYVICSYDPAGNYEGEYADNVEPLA
T1 sequence (P16562 22-243 N97P): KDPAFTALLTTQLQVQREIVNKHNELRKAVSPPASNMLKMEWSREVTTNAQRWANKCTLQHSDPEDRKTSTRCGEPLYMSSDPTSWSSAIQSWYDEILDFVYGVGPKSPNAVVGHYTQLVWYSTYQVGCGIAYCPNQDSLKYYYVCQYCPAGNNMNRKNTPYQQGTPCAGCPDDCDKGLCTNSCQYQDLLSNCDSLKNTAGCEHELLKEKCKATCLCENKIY

## CC(C)CCC[C@@H](C)[C@H]1CC[C@H]2[C@@H]3CC=C4C[C@@H](OS(=O)(=O)O)CC[C@]4(C)[C@H]3CC[C@]12C [cholesterol sulfate]
CRISP2 N97P
  Kd: 3.1 ± 1.5 µM
Pry1
  Kd: 3 ± 1.7 µM
[1]; PSP94^F24G preincubated 5 min at 24 °C, read-out: Kd, sterol binding by Pry1^CAP in presence of PSP94^F24G
  Kd: 4140 ± 920 nM
[1]; absence of PSP94, read-out: Kd, sterol binding by Pry1^CAP
  Kd: 900 ± 1900 nM
